From BindingDB's records for doi:10.1021/ml400413c (Dart Neuroscience, 2013) come the findings set out here.

Experiment [1] deals with T1, Peroxisome proliferator-activated receptor delta (Homo sapiens, UniProt Q03181).
T1 sequence (Q03181 whole entry): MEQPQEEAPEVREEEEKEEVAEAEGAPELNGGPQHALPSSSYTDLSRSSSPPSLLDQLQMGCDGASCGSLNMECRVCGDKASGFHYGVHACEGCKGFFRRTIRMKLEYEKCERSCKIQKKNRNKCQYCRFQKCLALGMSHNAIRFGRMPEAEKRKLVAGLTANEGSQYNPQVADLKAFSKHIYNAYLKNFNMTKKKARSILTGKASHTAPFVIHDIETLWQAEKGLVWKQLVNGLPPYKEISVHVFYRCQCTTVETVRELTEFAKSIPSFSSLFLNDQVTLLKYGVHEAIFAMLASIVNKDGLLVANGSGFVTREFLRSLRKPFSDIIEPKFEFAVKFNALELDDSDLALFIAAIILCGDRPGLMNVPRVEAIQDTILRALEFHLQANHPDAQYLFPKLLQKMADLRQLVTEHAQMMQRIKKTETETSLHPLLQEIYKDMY
Description: Agonist activity at human PPARdelta ligand binding domain expressed in monkey COS7 cells cotransfected with Gal4 by luciferase reporter gene assay.

Experiment [2] concerns the target T2, Peroxisome proliferator-activated receptor gamma (Homo sapiens, UniProt P37231).
T2 sequence (P37231 whole entry): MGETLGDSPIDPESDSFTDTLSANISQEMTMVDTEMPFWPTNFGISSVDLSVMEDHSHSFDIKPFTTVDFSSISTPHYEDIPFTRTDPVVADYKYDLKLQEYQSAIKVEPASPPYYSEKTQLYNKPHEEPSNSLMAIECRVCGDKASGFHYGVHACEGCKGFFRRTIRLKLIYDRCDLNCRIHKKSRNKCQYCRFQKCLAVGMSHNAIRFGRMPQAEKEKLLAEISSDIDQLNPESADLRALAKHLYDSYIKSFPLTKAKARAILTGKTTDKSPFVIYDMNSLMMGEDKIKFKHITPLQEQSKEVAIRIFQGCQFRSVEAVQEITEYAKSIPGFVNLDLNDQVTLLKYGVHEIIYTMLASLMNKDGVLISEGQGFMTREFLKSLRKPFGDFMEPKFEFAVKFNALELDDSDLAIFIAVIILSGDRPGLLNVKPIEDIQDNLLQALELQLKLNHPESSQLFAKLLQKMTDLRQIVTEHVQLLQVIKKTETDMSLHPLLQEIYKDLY
Description: Agonist activity at human PPARgamma ligand binding domain expressed in monkey COS7 cells cotransfected with Gal4 by luciferase reporter gene assay.

As for `COC(c1ccc(Br)cc1)C1CC1c1cc(C)c(OC(C)(C)C(=O)O)c(C)c1` (stereo not drawn), the EC50 – broadly, the concentration at which the effect is half-maximal – stood at 0.054 µM in experiment [1] and 0.019 µM in experiment [2].

For the molecule `CCOC(c1ccc(OC(F)(F)F)cc1)C1CC1c1cc(C)c(OC(C)(C)C(=O)O)c(C)c1` (stereo not drawn), the EC50 in experiment [2] came out at 0.039 µM.
